# In US9944019B2, “Tip-loaded microneedle arrays for transdermal insertion” (University of Pittsburgh—Of the Commonwealth System of …, priority 2012, dated 2018):
# Test system: epidermal cells
# Test: Apoptosis in living human skin organ cultures, green fluorescent TUNEL assay
# Assay type: cell-based
# Conditions: arrays removed after 5 minutes, 72 hours of exposure; pyramidal CMC-microneedle arrays
# Method: Cytoxan® was integrated at a concentration of 5 mg/g of CMC, enabling delivery of approximately about 140 μg per array. This is a therapeutically relevant concentration based on the area of skin targeted, yet well below levels associated with systemic toxicities. Living human skin organ cultures were used to assess the cytotoxicty of Cytoxan®. Cytoxan® was delivered by application of arrays to skin explants as we previously described. Arrays and residual material were removed 5 minutes after application, and after 72 hours of exposure, culture living skin explants were cryo-sectioned and fixed.
structure (smiles),measurement,value
"O=P1(N(CCCl)CCCl)NCCCO1 (stereo not shown) [Cytoxan®, cyclophosphamide]",apoptosis (TUNEL),extensive apoptosis of epidermal cells
